Test results reported in US20260014147A1, “STAT6 DEGRADERS” (Gilead Sciences, Inc., priority 2024, published 2026).

Experiments:
[1] = test system: Eotaxin-3 (CCL26) release in human whole blood stimulated with IL-4; test: Human Whole Blood Eotaxin-3 Assay (IL-4 stimulated, inhibition of eotaxin-3 release); type: cell-based; conditions: Homo sapiens, EC50 provided for test compounds with >80% Emax, geometric mean across assay runs and batches
Description: This was a human whole blood assay using recombinant human Interleukin 4 to stimulate the blood and measuring the ability of the test compounds to inhibit eotaxin-3 release. The biological activities of the test compounds have been tested in human whole blood stimulated with IL-4 measuring Eotaxin-3 release. The test compounds were added to 384 well clear flat-bottom plate in a 4-fold serial dilution in triplicates using a liquid handler. Human whole blood stabilized in lithium-heparin tubes was added in a volume of 65 uL per well, resulting in a final DMSO concentration of 0.5%. The plate is incubated for 2 h at 37° C. under 5% CO2/95% air. Subsequently, 5 μL of recombinant human IL-4 (R&D Systems, cat #204-ILB) was added to the wells to a final concentration of 400 pM. The plate was incubated for 48 h at 37° C. under 5% CO2/95% air. The plate was spun down for 10 minutes at 500×g and 20 uL supernatant was harvested and transferred to a 384 well v-bottom plate using a liquid handler and stored at −20° C. until further analysis. 10 uL supernatant was used to measure the level of Eotaxin-3 (CCL26) using Human Eotaxin-3 MSD kit from Mesocsale (Cat #K251UEK-4). The assay was performed according to the manufacture instructions.
The data from the human whole blood eotaxin-3 assay is shown below for Examples 2q11, 2110, and 2c49 (where the effect in % is plotted against the test concentration in M on a log-scale).

[2] = target: T1, STAT6 (endogenous, HiBiT-tagged) in HeLa LgBiT clone 4.14 cells (Homo sapiens, UniProt P42226); test: STAT6 Degrader Assay (HiBiT based, HeLa LgBiT clone 4.14 cells, luminescence, DC50); type: cell-based; conditions: geometric mean; for Emax: Emax provided for test compounds with <80% Emax (and 2c15), read-out: STAT6 degradation Emax; for DC50: DC50 provided for test compounds with >80% Emax, read-out: STAT6 degradation DC50
T1 construct: These cells express endogenous STAT6; host or cells: HeLa LgBiT clone 4.14
T1 sequence (P42226 1-847): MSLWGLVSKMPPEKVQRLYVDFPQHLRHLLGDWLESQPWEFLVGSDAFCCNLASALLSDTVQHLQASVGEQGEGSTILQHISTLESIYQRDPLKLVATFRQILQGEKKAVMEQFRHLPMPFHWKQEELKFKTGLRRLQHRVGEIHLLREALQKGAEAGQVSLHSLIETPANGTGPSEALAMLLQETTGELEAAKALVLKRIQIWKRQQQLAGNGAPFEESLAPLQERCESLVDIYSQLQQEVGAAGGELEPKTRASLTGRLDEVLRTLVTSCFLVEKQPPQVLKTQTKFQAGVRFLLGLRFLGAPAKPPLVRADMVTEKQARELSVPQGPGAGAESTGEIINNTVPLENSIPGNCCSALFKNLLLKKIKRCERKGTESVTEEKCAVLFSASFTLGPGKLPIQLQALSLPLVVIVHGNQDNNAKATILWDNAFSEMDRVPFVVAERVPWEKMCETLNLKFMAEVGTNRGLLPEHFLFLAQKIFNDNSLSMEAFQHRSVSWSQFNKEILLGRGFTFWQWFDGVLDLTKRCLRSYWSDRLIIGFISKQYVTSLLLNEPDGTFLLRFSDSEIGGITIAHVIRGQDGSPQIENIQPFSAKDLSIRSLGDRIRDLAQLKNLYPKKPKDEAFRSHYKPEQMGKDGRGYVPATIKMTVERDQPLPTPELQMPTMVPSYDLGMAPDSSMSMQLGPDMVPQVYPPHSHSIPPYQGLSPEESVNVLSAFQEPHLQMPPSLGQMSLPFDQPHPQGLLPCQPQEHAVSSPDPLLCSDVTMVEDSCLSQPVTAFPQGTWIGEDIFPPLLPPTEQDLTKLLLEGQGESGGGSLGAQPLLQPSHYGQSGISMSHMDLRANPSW
In short: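 Remaining STAT6 is read as NanoBiT luminescence after 0.5 h with Nano-Glo, in HeLa LgBiT clone 4.14 cells expressing endogenous HiBiT-tagged STAT6, following 4-24 h compound incubation at 37 °C. Full degradation is set by 50 µM terfenadine, which kills the cells; degradation plotted against log compound concentration.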

EC50 [1] [nM]	Emax [2] [%]	DC50 [2] [nM]	Compound
169	70 to 80		C[C@@H](c1cc2c(-c3ccc(N)nn3)ccnc2n1C)N1CCC(c2ccc(C(=O)N3CCC(CN4CCN(c5ccc(NC6CCC(=O)NC6=O)cc5F)CC4)CC3)cc2)CC1 (stereo partly drawn) [Example 2c27, 3-((4-(4-((1-(4-(1-((S)-1-(4-(6-aminopyridazin-3-yl)-1-methyl-1H-pyrrolo[2,3-b]pyridin-2-yl)ethyl)piperidin-4-yl)benzoyl)piperidin-4-yl)methyl)piperazin-1-yl)-3-fluorophenyl)amino)piperidine-2,6-dione]
95.3	70 to 80		C[C@@H](c1cc2c(-c3ccc4[nH]c(=O)n(C)c4c3)ccnc2n1C)N1CCC(c2ccc(C(=O)N3CCC(CN4CCN(c5ccc(NC6CCC(=O)NC6=O)cc5F)CC4)CC3)cc2)CC1 (stereo partly drawn) [Example 2c28, 3-((3-fluoro-4-(4-((1-(4-(1-((S)-1-(1-methyl-4-(3-methyl-2-oxo-2,3-dihydro-1H-benzo[d]imidazol-5-yl)-1H-pyrrolo[2,3-b]pyridin-2-yl)ethyl)piperidin-4-yl)benzoyl)piperidin-4-yl)methyl)piperazin-1-yl)phenyl)amino)piperidine-2,6-dione]
507	30 to 40		C[C@@H](c1cc2c(-c3ncc(N)cc3F)ccnc2n1C)N1CCC(c2ccc(C(=O)N3CCC(CN4CCN(c5ccc(NC6CCC(=O)NC6=O)cc5F)CC4)CC3)cc2)CC1 (stereo partly drawn) [Example 2c30, 3-((4-(4-((1-(4-(1-((S)-1-(4-(5-amino-3-fluoropyridin-2-yl)-1-methyl-1H-pyrrolo[2,3-b]pyridin-2-yl)ethyl)piperidin-4-yl)benzoyl)piperidin-4-yl)methyl)piperazin-1-yl)-3-fluorophenyl)-amino)piperidine-2,6-dione]
67.9		16.5	COc1nc(N)ccc1-c1ccnc2c1cc([C@H](C)N1CCC(c3ccc(C(=O)N4CCC(CN5CCN(c6ccc(NC7CCC(=O)NC7=O)cc6F)CC5)CC4)cc3)CC1)n2C (stereo partly drawn) [Example 2c32, 3-((4-(4-((1-(4-(1-((S)-1-(4-(6-amino-2-methoxypyridin-3-yl)-1-methyl-1H-pyrrolo[2,3-b]pyridin-2-yl)ethyl)piperidin-4-yl)benzoyl)piperidin-4-yl)methyl)piperazin-1-yl)-3-fluorophenyl)amino)-piperidine-2,6-dione]
136		22.5	C[C@@H](c1cc2c(-c3ccc(N)cn3)ccnc2n1C)N1CCC(c2ccc(C(=O)N3CCC(CN4CCN(c5ccc(NC6CCC(=O)NC6=O)cc5F)CC4)CC3)cc2)CC1 (stereo partly drawn) [Example 2c33, 3-((4-(4-((1-(4-(1-((S)-1-(4-(5-aminopyridin-2-yl)-1-methyl-1H-pyrrolo[2,3-b]pyridin-2-yl)ethyl)-piperidin-4-yl)benzoyl)piperidin-4-yl)methyl)piperazin-1-yl)-3-fluorophenyl)amino)piperidine-2,6-dione]
104		21.3	CNc1ccc(-c2ccnc3c2cc([C@H](C)N2CC=C(c4c(C)cc(C(=O)N5CCC(CN6CCN(c7ncc(NC8CCC(=O)NC8=O)cc7F)C[C@@H]6C)CC5)cc4F)CC2)n3C)cn1 (stereo partly drawn) [Example 2c45, 3-((5-fluoro-6-((S)-4-((1-(3-fluoro-5-methyl-4-(1-((S)-1-(1-methyl-4-(6-(methyl-amino)pyridin-3-yl)-1H-pyrrolo[2,3-b]pyridin-2-yl)ethyl)-1,2,3,6-tetrahydropyridin-4-yl)benzoyl)-piperidin-4-yl)methyl)-3-methylpiperazin-1-yl)pyridin-3-yl)amino)piperidine-2,6-dione]
58.4		21.4	CNc1ccc(-c2ccnc3c2cc([C@H](C)N2CC=C(c4c(C)cc(C(=O)N5CCC(CN6CCN(c7ccc(NC8CCC(=O)NC8=O)c(OC)c7)CC6)CC5)cc4F)CC2)n3C)cn1 (stereo partly drawn) [Example 2c46, 3-((4-(4-((1-(3-fluoro-5-methyl-4-(1-((S)-1-(1-methyl-4-(6-(methylamino)pyridin-3-yl)-1H-pyrrolo[2,3-b]pyridin-2-yl)ethyl)-1,2,3,6-tetrahydropyridin-4-yl)benzoyl)piperidin-4-yl)methyl)piperazin-1-yl)-2-methoxyphenyl)amino)piperidine-2,6-dione]
25		3.4	COCc1nc2cc(-c3ccnc4c3cc([C@H](C)N3CCC(c5ccc(C(=O)N6CCC(CN7CCN(c8ccc(NC9CCC(=O)NC9=O)cc8F)C[C@H]7C)CC6)cc5)CC3)n4C)ccc2[nH]1 (stereo partly drawn) [Example 2f1, 3-((3-fluoro-4-((R)-4-((1-(4-(1-((S)-1-(4-(2-(methoxymethyl)-1H-benzo[d]imidazol-5-yl)-1-methyl-1H-pyrrolo[2,3-b]pyridin-2-yl)ethyl)piperidin-4-yl)benzoyl)piperidin-4-yl)methyl)-3-methylpiperazin-1-yl)phenyl)amino)piperidine-2,6-dione]
37		6.8	C[C@@H]1CN(c2ccc(NC3CCC(=O)NC3=O)cc2F)CCN1CC1CCN(C(=O)c2ccc(C3CCN([C@@H](C)c4cc5c(-c6ccc(N)nc6)ccnc5n4C)CC3)cc2)CC1 (stereo partly drawn) [Example 2f2, 3-((4-((R)-4-((1-(4-(1-((S)-1-(4-(6-aminopyridin-3-yl)-1-methyl-1H-pyrrolo[2,3-b]pyridin-2-yl)ethyl)piperidin-4-yl)benzoyl)piperidin-4-yl)methyl)-3-methylpiperazin-1-yl)-3-fluorophenyl)amino)-piperidine-2,6-dione]
118	60 to 70		C[C@@H](c1cc2c(-c3ccc(N)nc3)ccnc2n1C)N1CCC(c2ccc(C(=O)N3CCC(CN4CCC(c5ccc(NC6CCC(=O)NC6=O)cc5F)C(F)(F)C4)CC3)cc2)CC1 (stereo partly drawn) [Example 2m2, 3-((4-(1-((1-(4-(1-((S)-1-(4-(6-aminopyridin-3-yl)-1-methyl-1H-pyrrolo[2,3-b]pyridin-2-yl)-ethyl)piperidin-4-yl)benzoyl)piperidin-4-yl)methyl)-3,3-difluoropiperidin-4-yl)-3-fluorophenyl)amino)-piperidine-2,6-dione]
141	70 to 80		C[C@@H](c1cc2c(-c3ccc(N)nc3)ccnc2n1C)N1CCC(c2ccc(C(=O)N3CCC(CN4CCN(c5ccc(NC6CCC(=O)NC6=O)c(F)n5)CC4)CC3)cc2)CC1 (stereo partly drawn) [Example 2n9, 3-((6-(4-((1-(4-(1-((S)-1-(4-(6-aminopyridin-3-yl)-1-methyl-1H-pyrrolo[2,3-b]pyridin-2-yl)-ethyl)-piperidin-4-yl)benzoyl)piperidin-4-yl)methyl)piperazin-1-yl)-2-fluoropyridin-3-yl)amino)piperidine-2,6-dione]
131	70 to 80		C[C@@H](c1cc2c(-c3ccc(N)nc3)ccnc2n1C)N1CCC(c2ccc(C(=O)N3CCC(CN4CCN(c5ncc(NC6CCC(=O)NC6=O)cc5F)CC4)CC3)cc2)CC1 (stereo partly drawn) [Example 2n10, 3-((6-(4-((1-(4-(1-((S)-1-(4-(6-aminopyridin-3-yl)-1-methyl-1H-pyrrolo[2,3-b]pyridin-2-yl)ethyl)-piperidin-4-yl)benzoyl)piperidin-4-yl)methyl)piperazin-1-yl)-5-fluoropyridin-3-yl)amino)-piperidine-2,6-dione]
